In patent US20100022637A1, “IDENTIFICATION OF ANTI-CANCER COMPOUNDS AND COMPOUNDS FOR TREATING HUNTINGTON'S DISEASE AND METHODS OF TREATMENT THEREOF” (THE TRUSTEES OF COLUMBIA UNIVERSITY IN THE CITY OF NEW YORK, priority 2005, published 2010):
pEC50: −log10 of the molar value. Converted amounts (≈) assume the structure as drawn. Blank lines part the entries; values can stand above or below the molecule they belong to.

Experiments:
parental ST14A cells = assay: Cell death rescue in parental cells (selectivity counter screen); assay type: cell-based, rat; details: in words
Experimental: Cell death is indicated by a decrease in fluorescence. […] (with 5% CO2).
Identification of selective inhibitors of mutant-htt toxicity: As a first step towards probing mechanisms of action of these compounds, it was tested whether compounds selectively targeted pathways that are perturbed by mutant htt or if they suppressed a general death mechanism. Caspase activation was tested to see if it contributed to cell death in this model, since caspase-dependent pathways have been broadly implicated in cell death and in HD (Thornberry, N. and Y. Lazebnik, Science 1998, 281:1312-6; Sanchez Mejia, R and R. Friedlander Neuroscientist 2001, 7: 480-9; Hickey M. and M. Chesselet, Prog Neuropsychopharmacol Biol Psych 2003, 27: 255-65). Caspase activation was monitored via measuring the cleavage of specific fluorogenic caspase substrates. […] The decreased caspase activation in WT N548 cells was consistent with relative protection of these cells from cell death. […] Thus, the ability of a compound to rescue cell death in ST14A cells could be used as a selectivity filter to differentiate compounds that were selective for pathways selective for mutant htt induced cell death. The selectivity of rescue by a compound was determined by assessing rescue of cell death in parental ST14A cells. […]

N548 mutant cells = assay: in vitro; details: for Activity: scale not defined; for selectivity profile of cell death rescue in panel of htt expressing cell lines: N63, N548, FL htt cell lines
caspases = assay: Caspase assay (fluorogenic AFC substrates); assay type: cell-based, rat; details: 50 μM; ST14A and N548 mutant cells, serum deprivation 39° C.
Experimental: Caspase activity was measured using a fluorogenic assay (Biovision Inc. CA), based on cleavage of AFC (7-amino-4-trifluoromethyl coumarin) from specific AFC-conjugated peptide substrates by activated caspases. Each cell line was seeded at 10^6 cells/plate, incubated overnight at 33° C., and then incubated for 6 h at 39° C. in 0.5% IFS containing medium with or without BOC-D-fmk (50 μM). Four plates/sample were harvested in lysis buffer provided by the manufacturer. Peptide substrates were added to the cell lysate or to lysis buffer (control), incubated at 37° C. for 2 h, and fluorescence (ex 355/em 510 nm) measured on a plate reader (Perkin Elmer Victor^3). Fluorescence intensities of controls were subtracted from sample intensity and the resulting value normalized to protein in each sample (Bradford Assay from BioRad; Hercules, Calif.).

RKO cells [1] = assay: Alamar Blue viability assay, RKO; assay type: cell-based, human; details: in words
Experimental: (§1) RKO colon carcinoma, human (ATCC, order # CRL-2577), RKO-E6 colon carcinoma transfected with HPV E6 inserted in pCMV.3 (ATCC, order # CRL-2578) were grown in MEM with 2 mM L-glutamine and Earle's BBS adjusted to contain 1.5 g/L NaHCO3, 0.1 mM non-essential amino acids and 1.0 mM sodium pyruvate, and supplemented with 10% fetal bovine serum, penicillin and streptomycin (pen/strep). Both cell lines were incubated at 37° C. in a humidified incubator containing 5% CO2.
The Alamar Blue assay incorporates a fluorimetric/colorimetric growth indicator that changes color in the response to chemical reduction by viable cells (Nociari 1998). Cells were seeded at a density of 3,000 cells (57 μl) per well in a 384-well black, clear-bottom plates using a syringe bulk dispenser (Zymark Sciclone ALH). […] Fluorescence intensity was determined using a Packard Fusion platereader with a 535 nm excitation filter and a 590 nm emission filter. The average fluorescence for the whole plate was used as a positive control. Average percentage inhibition for each well was determined using our freely available SLIMS software (Kelley et al., 2004). […]
Each cell line (RKO, RKO-E6, HeLa and TC32) was treated with a dose combination matrix of doxorubicin and a selected hit compound. […] The average percent inhibition of cell proliferation, measured with Alamar Blue, was determined using the following formula: […]

p53 = assay: Western blot of p53 (p21, MDM2) levels; assay type: cell-based, human; details: RKO-E6 cells; in words
Experimental: Protein content was quantified using a BioRad protein assay reagent (BioRad, cat #500-0006). Equal amounts of protein were resolved on SDS-polyacrylamide gels. Proteins were transferred onto a PVDF membrane, blocked with 5% milk, and incubated with the appropriate primary and secondary antibodies. […] To test for equivalent loading in each lane, blots were stripped, blocked and probed with an anti-eIF-4E antibody.

RKO-E6 cells [2] = assay: Alamar Blue viability assay, RKO-E6; assay type: cell-based, human; details: for effect on doxorubicin's lethality in RKO-E6 cells: co-treatment with 0.5 μg/ml doxorubicin, 24 h
Experimental: as §1
The Alamar Blue assay incorporates a fluorimetric/colorimetric growth indicator that changes color in the response to chemical reduction by viable cells (Nociari 1998). Cells were seeded at a density of 3,000 cells (57 μl) per well in a 384-well black, clear-bottom plates using a syringe bulk dispenser (Zymark Sciclone ALH). Three microliters were removed from a compound daughter plate using a 384 fixed cannula head and added to the assay plate, making the final concentration 4 μg/ml. The plates were incubated for 24 h at 37° C. 10 μl of 40% Alamar Blue (Biosource Int., cat #DAL1100) solution in media was added to each well (1:10 dilution). The assay plates were incubated for 16h. Fluorescence intensity was determined using a Packard Fusion platereader with a 535 nm excitation filter and a 590 nm emission filter. The average fluorescence for the whole plate was used as a positive control. Average percentage inhibition for each well was determined using our freely available SLIMS software (Kelley et al., 2004).
The daughter plates for the 2-fold dilution series were prepared with a Zymark Sciclone ALH by diluting the replica daughter plates to obtain compound concentrations from 8 μg/ml-0.008 μg/ml (columns 8-18). Columns 1-7 were used as untreated control. RKO-E6 cells were seeded at the density of 3,000 per well in 55 μl, and 5 μl were added from the daughter plate. RKO cells were seeded at the density of 2,000 per well in 55 μl, and 5 μl were added from the daughter plate. The assay was incubated for 24 h at 37° C. 10% Alamar Blue was added to each well and the assay was incubated for 16 h (see above). Compounds for retesting were purchased from the manufacturers or from Sigma-Aldrich (see above). Stocks were prepared in DMSO at 4 mg/ml.
(§2) Each cell line (RKO, RKO-E6, HeLa and TC32) was treated with a dose combination matrix of doxorubicin and a selected hit compound. Each treatment was done in a triplicate in 384-well format. The average percent inhibition of cell proliferation, measured with Alamar Blue, was determined using the following formula: […]

RKO-E6 cells [3] = assay: Flow cytometry cell cycle distribution, RKO-E6; assay type: cell-based, human; details: 24 h, propidium iodide
Experimental: (§3) RKO, RKO-E6 or HeLa cells were seeded in 20-cm dishes in 10 ml of growth medium. Cells were allowed to adhere and then treated with the selected compounds for 24 h. The treated cells were collected, washed 2× with PBS and counted. The cell pellet was re-suspended in 500 μl of ice cold PBS and 2-5 ml of cold 70% ethanol (−20° C.) were added. Cells were fixed for 1 h or overnight. 5-10 million cells were placed into a 15-ml conical tube and centrifuged at 1000 g. Cells were washed 2× with 1% calf serum in PBS. Cells were resuspended in 800 μl of 1% calf serum in PBS and 100 μl of Rnase (1 mg/ml) and 100 μl of propidium iodide (400 μg/ml) added. Cells were incubated at 37° C. for 30 min and then analyzed on flow cytometer.

[4] = tested on: HeLa, TC32, A673, BJELR cells; assay: Alamar Blue viability assay, other cancer cell lines; assay type: cell-based; details: TC32 (A673 for T55D7)
Experimental: as §2

RKO cells [5] = assay: Flow cytometry cell cycle distribution, RKO; assay type: cell-based, human; details: 24 h, propidium iodide
Experimental: as §3

in vitro = details: rat
N2 worms = details: 6 mM; cited from earlier work
topoisomerase IIα = assay: Western blot of topoisomerase IIα level; assay type: cell-based, human; details: RKO and/or RKO-E6 cells; in words
Description: Antibodies were obtained form the following suppliers: p53 (Oncogene/Calbiochem, cat #OP43), p21 (Santa Cruz Biotechnology inc., cat #sc-817), MDM2 (Santa Cruz Biotechnology Inc., cat #sc-965), Topoisomerase IIα (TopoGEN, cat #2011-1), Topoisomerase I (BD PharMingen, cat #556597), Cyclin B (BD Transduction Laboratories, cat #610219), Cyclin A (BD Transduction Laboratories, cat #611268), Anti-Fluorescein-HRP (Molecular Probes, cat #A21253), Anti-biotin-HRP (Cell Signaling Technology, cat #7075, Jackson ImmunoResearch Laboratories, cat #200-032-096), eIF4E (Santa Cruz Biotechnology Inc., cat #sc-9976 HRP).
Cells were lysed in denaturing lysis buffer (50 mM HEPES KOH [pH 7.4], 40 mM NaCl, 2 mM EDTA, 1.5 mM Na3VO4, 50 mM NaF, 10 mM sodium pyrophosphate, 10 mM sodium β-glycerophosphate, 0.5% Triton X-100, and protease inhibitor tablet [Roche, cat #11777700]). Protein content was quantified using a BioRad protein assay reagent (BioRad, cat #500-0006). Equal amounts of protein were resolved on SDS-polyacrylamide gels. Proteins were transferred onto a PVDF membrane, blocked with 5% milk, and incubated with the appropriate primary and secondary antibodies. […]

[6] = tested on: PC12 expressing Q103 exon 1 htt; assay: PC12 HD model, Alamar Blue viability; assay type: cell-based
Experimental: For enhanced stability the repeat portion consists of alternating CAG/CAA repeats. […] Mutant (mut) htt was induced by the ecdysone receptor agonist, tebufenozide.
For the PC12 assay, 7500 cells/well were plated in 384-well plates in 57 μl of PC12 medium with tebufenozide (1 μM). Compounds (3 μl) from daughter plates were added to the cells and incubated at 37° C. After 48 h, 20 μl of 40% Alamar Blue (Biosource, CA) in PC12 media was added per well and cells incubated for 12 h at 37° C. […] Fluorescence intensity was determined using a Packard Fusion plate reader with an excitation filter centered on 535 nm and an emission filter centered on 590 nm. Average percentage inhibition at each concentration was calculated.

Compound: COC(=O)CC(NC(=O)OC(C)(C)C)C(=O)CF [BOC-D-fmk, reference compound]
rescue of cell death in parental ST14A cells (parental ST14A cells): rescued cell death | rescue of cell death in mutant N548 cells (N548 mutant cells; in words): rescued cell death | pEC50 (N548 mutant cells; nonselective hits (rescue also parental ST14A), 0.5% IFS, 39° C., 3 d): 4.60 | TC50 (N548 mutant cells; nonselective hits, maximum concentration tested 80 μM): ND(80) | Activity (N548 mutant cells; nonselective hits): 3 | caspase activation (caspases): prevented caspase activation

Compound: S=C1N(CN2CCOCC2)CCN1CN1CCOCC1 [Compound T55D7, 1,3-bis(4-morpholinylmethyl)-2-imidazolidinethione]
effect on doxorubicin's lethality in RKO cells (RKO cells [1]): increase both doxorubicin's and camptothecin's lethality | p53, p21, MDM2 levels (p53): did not change p53 concentration | concentrations with doxorubicin-independent lethality (RKO-E6 cells [2]; absence of doxorubicin): 30 to 100 µM | effect on doxorubicin's lethality in RKO-E6 cells (RKO-E6 cells [2]; in words): increase both doxorubicin's and camptothecin's lethality | effect on camptothecin's lethality (RKO-E6 cells [2]; co-treatment with camptothecin, in words): increase both doxorubicin's and camptothecin's lethality | effect on podophyllotoxin's lethality (RKO-E6 cells [2]; co-treatment with podophyllotoxin, in words): did not increase the microtubule inhibitor podophylotoxin's lethality | Bliss Independence analysis of combination with doxorubicin (RKO-E6 cells [2]; combination dose matrix): exceeded Bliss Independence with doxorubicin at multiple doses | cell cycle effect in RKO-E6 cells (RKO-E6 cells [3]): pronounced S-phase arrest | effect on doxorubicin's potency in other cell lines [4]: upregulated doxorubicin's potency in other cell lines | cell cycle effect in RKO cells (RKO cells [5]): virtually no changes in the cell cycle

pEC50 (N548 mutant cells; Rattus norvegicus, ST14A, 72 h): 5.30
Compound: O=C(O)c1ccccc1Nc1cccc(C(F)(F)F)c1 [Flufenamic Acid, reference compound]
Activity (N548 mutant cells; nonselective hits): 1.5 | CC50 at 3 days (in vitro; ST14A striatal cells expressing N548 mutant human htt): 40 µM

Compound: CC[n+]1c(-c2ccccc2)c2cc(N)ccc2c2ccc(N)cc21 [Homidium Bromide, reference compound]
pEC50 (N548 mutant cells; Rattus norvegicus, ST14A, 72 h): 5.00 | Activity (N548 mutant cells; nonselective hits): 1.5 | CC50 (in vitro): 15 µM

Compound: C[n+]1ccc(-c2cc[n+](C)cc2)cc1 [Paraquat]
toxicity in worms (N2 worms): toxic

Compound: C[C@@H]1C[C@@H]([C@H](O)CC2CC(=O)NC(=O)C2)C(=O)[C@@H](C)C1 [cycloheximide]
p53, p21, MDM2 levels (p53): caused a disappearance of p53 and p21 | topoisomerase IIα levels (topoisomerase IIα): caused increased topoisomerase IIα levels | effect on doxorubicin's lethality in RKO-E6 cells (RKO-E6 cells [2]; in words): potentiated doxorubicin's lethality

Compound: CCCCCCCCCC(=O)Oc1cc(-c2ccccc2)nn1-c1cccc(F)c1 [revertin-1c]
EC50 ([6]; Rattus norvegicus, PC-12, unit inferred): 40 µg/mL (≈ 97.9 µM) | PC12 rescue: percent increase in viability in compound treated cells above DMSO treated ([6]; — = no activity in the assay (footnote n.a.)): 23% | rescue of cell death in parental ST14A cells (parental ST14A cells): not in parental ST14A cells | selectivity profile of cell death rescue in panel of htt expressing cell lines (N548 mutant cells; in words): selectively rescued cell death in all mutant htt-expressing cell lines | selectivity profile of cell death rescue in panel of htt expressing cell lines (N548 mutant cells; in words, listed as Rev-1c): selectively rescues cell death in three mutant htt expressing cell lines | maximal fold induction (N548 mutant cells; Rattus norvegicus, 72 h, read-out: N548 Mut: Max, maximum rescue expressed as fold over DMSO treated N548 mutant cells): 2.5 | EC50 (N548 mutant cells; Rattus norvegicus, read-out: EC50 based on activity in N548 mutant cells): 4 µg/mL
